Changes are numbered by the printed parent chain. Where a name gives a salt, the structure may show the parent alone.
How the values were obtained:
Assay type in all cases: biochemical
WT IDH1 [1] = molecular target: T1, WT IDH1 (Homo sapiens, UniProt O75874); test: Absorbance assay, WT activity in the presence of equimolar DL-isocitrate (inhibition); conditions: […] isocitrate and […] test compound, 75 μM NADP+, 2.0 nM WT IDH1
T1 construct: made in house; host or cells: Escherichia coli BL21(DE3) pLyS
T1 sequence (O75874 whole entry): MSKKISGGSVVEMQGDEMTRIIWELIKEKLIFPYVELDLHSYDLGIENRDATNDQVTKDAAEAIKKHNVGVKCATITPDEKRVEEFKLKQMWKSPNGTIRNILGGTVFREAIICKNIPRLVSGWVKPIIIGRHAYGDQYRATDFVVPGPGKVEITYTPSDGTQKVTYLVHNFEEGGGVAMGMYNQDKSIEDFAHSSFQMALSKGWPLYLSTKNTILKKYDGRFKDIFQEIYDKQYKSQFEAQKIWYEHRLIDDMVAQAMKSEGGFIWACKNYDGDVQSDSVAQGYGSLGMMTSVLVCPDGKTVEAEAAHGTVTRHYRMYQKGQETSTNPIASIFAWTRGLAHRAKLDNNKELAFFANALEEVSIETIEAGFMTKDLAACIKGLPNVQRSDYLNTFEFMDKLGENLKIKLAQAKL
How it was run: (§1)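 Reactions were run as technical quadruplicates. Compounds were dispensed with a simultaneous pipettor, and each assay was started by adding reagent from a bulk dispenser.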

WT IDH2 [2] = molecular target: T2, WT IDH2 (Homo sapiens, UniProt P48735); test: as above; conditions: […] isocitrate and […] test compound, 75 μM NADP+, 2.0 nM WT IDH2
T2 construct: made in house; host or cells: Sf21 insect cells (cell pellets prepared at Evotec)
T2 sequence (P48735 40-452): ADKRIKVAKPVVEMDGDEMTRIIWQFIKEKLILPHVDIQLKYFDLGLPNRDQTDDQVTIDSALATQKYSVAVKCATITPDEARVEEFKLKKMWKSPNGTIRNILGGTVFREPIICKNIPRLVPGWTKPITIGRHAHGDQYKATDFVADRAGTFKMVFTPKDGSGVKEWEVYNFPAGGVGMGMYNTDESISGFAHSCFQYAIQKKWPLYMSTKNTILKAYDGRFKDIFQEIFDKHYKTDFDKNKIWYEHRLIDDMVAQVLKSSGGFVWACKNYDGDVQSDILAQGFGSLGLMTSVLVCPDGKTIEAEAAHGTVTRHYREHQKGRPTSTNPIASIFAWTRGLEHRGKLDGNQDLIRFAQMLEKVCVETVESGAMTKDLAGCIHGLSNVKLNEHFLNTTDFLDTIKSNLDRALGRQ
How it was run: as §1

R132H IDH1 [3] = molecular target: T3, R132H IDH1 (Homo sapiens, UniProt O75874, R132H); test: Absorbance assay, variant activity in the presence of equimolar 2OG (inhibition screen); set-up: made in house; host or cells: Escherichia coli BL21(DE3) pLyS; conditions: […] 2OG and […] test compound, 0.03 μM R132H IDH1, 50 μM NADPH
T3 sequence (O75874 whole entry R132H): as the sequence (O75874 whole entry) above, with R132H counted along it
How it was run: as §1

R140Q IDH2 [4] = molecular target: T4, R140Q IDH2 (Homo sapiens, UniProt P48735, R140Q); test: Steady-state kinetics, absorbance assay; conditions: 0.03 μM enzyme, 50 μM NADPH, 20 mM MgCl2, pH 8.0
T4 construct: made in house; host or cells: Sf21 insect cells (cell pellets prepared at Evotec)
T4 sequence (P48735 40-452 R140Q): T2 sequence (P48735 40-452) with R101Q
Method: Compounds were dispensed using a CyBio SDW-CW CyBi-Well Simultaneous Pipettor and assay started using a ThermoFisher Multidrop Combi reagent dispenser.
Reactions were performed as technical duplicates, and all assays were carried out in two independent duplicates.

R172K IDH2 [5] = molecular target: T5, R172K IDH2 (Homo sapiens, UniProt P48735, R172K); test: Absorbance assay, variant activity in the presence of equimolar 2OG (inhibition screen); conditions: 1.0 mM 2OG and 1.0 mM test compound, 0.03 μM R172K IDH2, 50 μM NADPH
T5 construct: made in house; host or cells: Sf21 insect cells (cell pellets prepared at Evotec)
T5 sequence (P48735 40-452 R172K): T2 sequence (P48735 40-452) with R133K
How it was run: as §1

R140Q IDH2 [6] = molecular target: T4, R140Q IDH2; test: as above; conditions: 6.0 mM 2OG and 6.0 mM test compound, 0.03 μM R140Q IDH2, 50 μM NADPH
How it was run: as §1

WT IDH1 [7] = molecular target: T1, WT IDH1; test: Absorbance assay, substrate activity in the absence of DL-isocitrate; conditions: no DL-isocitrate; […] test compound, 75 μM NADP+, 2.0 nM WT IDH1; compared to DL-isocitrate
How it was run: as §1

WT IDH2 [8] = molecular target: T2, WT IDH2; test: as above; conditions: no DL-isocitrate; […] test compound, 75 μM NADP+, 2.0 nM WT IDH2; compared to DL-isocitrate
How it was run: as §1

R172K IDH2 [9] = molecular target: T5, R172K IDH2; test: Absorbance assay (NADPH consumption), substrate turnover in the absence of 2OG; conditions: no 2OG; 1.0 mM test compound, 0.03 μM R172K IDH2, 50 μM NADPH; 2OG = 100
How it was run: as §1

R140Q IDH2 [10] = molecular target: T4, R140Q IDH2; test: as above; conditions: no 2OG; 6.0 mM test compound, 0.03 μM R140Q IDH2, 50 μM NADPH; 2OG = 100
How it was run: as §1

R132H IDH1 [11] = molecular target: T3, R132H IDH1; test: as above; set-up: made in house; host or cells: Escherichia coli BL21(DE3) pLyS; conditions: no 2OG; […] test compound, 0.03 μM R132H IDH1, 50 μM NADPH; 2OG = 100
How it was run: as §1

Structure (SMILES)	activity [%] (%-substrate conversion after 20 min incubation) (WT IDH1 [1])	activity [%] (%-substrate conversion after 20 min incubation) (WT IDH2 [2])	activity [%] (%-substrate conversion after 20 min incubation) (R132H IDH1 [3])	Kmapp (R140Q IDH2 [4]) [mM]	activity [%] (%-substrate conversion after 20 min incubation) (R172K IDH2 [5])	activity [%] (%-substrate conversion after 20 min incubation) (R140Q IDH2 [6])	activity [%] (%-substrate conversion after 20 min incubation) (WT IDH1 [7])	activity [%] (%-substrate conversion after 20 min incubation) (WT IDH2 [8])	activity [%] (%-substrate conversion after 20 min incubation) (R172K IDH2 [9])	activity [%] (%-substrate conversion after 20 min incubation) (R140Q IDH2 [10])	activity [%] (%-substrate conversion after 20 min incubation) (R132H IDH1 [11])
O=C(O)CC(Cc1ccccc1)C(=O)C(=O)O (stereo not drawn) [compound 7, 3-benzyl-2OG]	94±1	99±1	229 ± 21	3.8 to 7.5	114 ± 4	91 ± 8	< 10	< 10			
O=C(O)CC(=O)C(=O)O [oxaloacetic acid]	100 ± 1	98 ± 2	106 ± 2		96 ± 8	110 ± 3	< 10	< 10	< 10	< 10	< 10
COC(=O)/C=C/C(=O)O [mono-methyl fumarate]	102 ± 2	98 ± 1	90 ± 4		92 ± 6	98 ± 4	< 10	< 10	< 10	< 10	< 10
COC(=O)/C=C/C(=O)OC [dimethyl fumarate]	104 ± 4	100 ± 3	85 ± 3		91 ± 2	61 ± 11	< 10	< 10	< 10	< 10	< 10
C=C(CC(=O)O)C(=O)O [itaconic acid]	99 ± 1	99 ± 2	92 ± 2		95 ± 7	96 ± 3	< 10	< 10	< 10	< 10	< 10
CCC(CC(=O)O)C(=O)C(=O)O (racemic) [compound 2]	98±10	96±3	317 ± 12	3.8 to 7.5	131 ± 16	865 ± 78	< 10	< 10			
O=C(O)CC(S)C(=O)O (stereo not drawn) [2-mercaptosuccinic acid]	109 ± 4	100 ± 1	104 ± 4		99 ± 4	91 ± 5	< 10	< 10	< 10	< 10	< 10
O=C(O)CC(=O)O [malonic acid]	100 ± 1	100 ± 2	103 ± 4		98 ± 4	117 ± 11	< 10	< 10	< 10	< 10	< 10
C[C@@](O)(CC(=O)O)C(=O)O [(R)-citramalic acid]	101 ± 1	99 ± 2	95 ± 2		100 ± 5	110 ± 9	< 10	< 10	< 10	< 10	< 10
CC(CC(=O)O)C(=O)O (racemic) [DL-2-methylsuccinic acid]	103 ± 2	99 ± 3	104 ± 3		102 ± 9	115 ± 12	< 10	< 10	< 10	< 10	< 10
